Here are results for four compounds from paper PMC9518609, “Design and synthesis of new trimethoxylphenyl-linked combretastatin analogues loaded on diamond nanoparticles as a panel for ameliorated solubility and antiproliferative activity” (Journal of Enzyme Inhibition and Medicinal Chemistry, 2022).

Molecules are shown by their SMILES.

One series deals with MDA-MB-231. The series is described as follows: MTT cytotoxic activity against breast MDA-MB-231 cancer cell line. To be noted: Homo sapiens, MDA-MB-231; MTT assay, 24 h treatment. Format: cell-based. The text has this:
(§1) All the synthesised compounds were screened for their cytotoxic activity against breast MDA-MB-231 cancer cell line and compounds 6 and 12 against breast MCF-10A cell line taking CA-4 as a positive control for the analysis. The in vitro cytotoxicity results of the prepared compounds were systematised in Table 1. […] Structurally, the prepared molecules contain three structural variations; including rotatable hydrazide derivatives, the core exchange with imidazolone ring, and the ring expansion with triazinone motif. […] It is noticed that directly attached benzene ring to triazinone scaffold (compound 6) or bioisosteric group (thiazolyl ester) as in compound 12, may contribute to the astonishing cytotoxicity against breast MDA-MB-231 cancer cells.
To measure the cytotoxic activity of the synthesised derivatives 2a–13e in breast cancer (MDA-MB-231) cell line. MTT assay method was applied to assess cell viability assay. All experimental steps were conducted as reported earlier.
(§2) Part I: Biological Studies
(§3) 4.3. Biological evaluation
(§4) 4.3.1. Cytotoxic activity evaluation
(§5) The cytotoxic actvity of the synthesized derivatives 2a-13e was measured in MDA-MB-231 breast cancer cell line and derivatives 6 and 12 in MCF-10A […].
(§6) Cell viability assay was assessed using MTT assay method. Cells at density of 1 x 104 were seeded in a 96-well plate at 37 °C for 24 h under 5% CO2. After incubation, the cells were treated with different concentrations of the test schiff bases 2a-13e and incubated for 24 h, then 20 µl of MTT solution at 5 mg/mL was applied and incubated for 4 h at 37 °C.
Dimethyl sulphoxide (DMSO) in volume of 100 µl was added to each well to dissolve the purple formazan that had formed. The color intensity of the formazan product, which represents the growth condition of the cells, is quantified by using an ELISA plate reader (EXL 800, USA) at 570 nm absorbance. The experimental conditions were carried out with at least three replicates, and the experiments were repeated at least three times. […]

A further series concerns MCF-10A. As to the kind of experiment: MTT cytotoxic activity against breast MCF-10A cell line. Format: cell-based. Particulars: Homo sapiens, MCF-10A; MTT assay, 24 h treatment.
Excerpt: as §1, §2, §3, §4, §5, §6
Dimethyl sulphoxide (DMSO) in volume of 100 µl was added to each well to dissolve the purple formazan that had formed. The color intensity of the formazan product, which represents the growth condition of the cells, is quantified by using an ELISA plate reader (EXL 800, USA) at 570 nm absorbance. […]
(§7) Compounds 6, 12 and CA-4 were evaluated for their tubulin inhibitory activity according to manufacturer’s instructions using # abcam Human Beta-tubulin simplestep ELISA Kit ab245722. MDA-MB-231 cells were trypsinized, counted and seeded at the 2 × 105 into 96-well micro titer plates. […]
(§8) (O.D.) was measured at 450±10 nm using microplate reader (Spectromax Plus 96 well plate […]
A general note: Formazan colour is commonly taken as a measure of viable cells.

The next series deals with β-tubulin. The series is described as follows: β-tubulin polymerisation inhibition assay (Human Beta-tubulin ELISA kit) on MDA-MB-231 cells. It is filed as cell-based. To be noted: MDA-MB-231 cell line, each compound at its IC50 concentration. How it is done:
Trimethoxy phenyl fragment-containing natural stilbenoid-derived molecules, such as Colchicine and CA-4 bind to β-tubulin subunit at the colchicine binding site resulting in inhibition of microtubule assembly and suppression of its formation. […] From the obtained results it can be concluded that the antiproliferative activity of the synthesised triazinone-linked CA-4 derivatives may be derived from the inhibition of microtubule assembly.
Triazinone derivatives 6 and 12 were assessed for their tubulin inhibitory activity according to manufacturer’s instructions using # abcam Human Beta-tubulin simple step ELISA Kit ab245722.
as §2, §3, §4, §5, §6
Dimethyl sulphoxide (DMSO) in volume of 100 µl was added to each well to dissolve the purple formazan that had formed. The color intensity of the formazan product, which represents the growth condition of the cells, is quantified by using an ELISA plate reader (EXL 800, USA) at 570 nm absorbance. The experimental conditions were carried out with at least three replicates, and the experiments were repeated at least three times.
4.3.2. Tubulin inhibitions Assay
as §7, §8
In general terms: In an ELISA, binding on a coated surface is turned into a signal by an enzyme label.

For the compound `COc1ccc(/C=C\c2cc(OC)c(OC)c(OC)c2)cc1O` [CA-4, Combretastatin-A4, reference compound], the half-maximal inhibitory concentration (IC50) with MDA-MB-231 is 0.55 ± 0.09 µM; in the series with MCF-10A, 8.91 ± 0.71 µM. In addition, the “% Inhibition of β-tubulin polymerisation” value in the series on β-tubulin was found to be 87.05 ± 0.08%.
Take `COc1cc(C=C2N=C(c3cc(OC)c(OC)c(OC)c3)N(c3nc(-c4ccc(Br)cc4)cs3)NC2=O)cc(OC)c1OC` [Compound 13c, 2-(4-(4-Bromophenyl)thiazol-2-yl)-5-(3,4,5-trimethoxybenzylidene)-3-(3,4,5-trimethoxyphenyl)-1,2-dihydro-1,2,4-triazin-6(5H)-one]: the melting point is 212 to 214 °C. In the series with MDA-MB-231, this compound had a 50% inhibitory concentration (IC50) of 10.1 ± 0.54 µM.
The compound `COc1cc(C=C2N=C(c3cc(OC)c(OC)c(OC)c3)N(c3nc(-c4cccc([N+](=O)[O-])c4)cs3)NC2=O)cc(OC)c1OC` [Compound 13d, 2-(4-(3-Nitrophenyl)thiazol-2-yl)-5-(3,4,5-trimethoxybenzylidene)-3-(3,4,5-trimethoxyphenyl)-1,2-dihydro-1,2,4-triazin-6(5H)-one] gave a melting point of 212 to 214 °C. The IC50 with MDA-MB-231 was determined as 3.16 ± 0.17 µM.
Compound `COc1cccc(-c2csc(N3NC(=O)C(=Cc4cc(OC)c(OC)c(OC)c4)N=C3c3cc(OC)c(OC)c(OC)c3)n2)c1` [Compound 13e, 2-(4-(3-Methoxyphenyl)thiazol-2-yl)-5-(3,4,5-trimethoxybenzylidene)-3-(3,4,5-trimethoxyphenyl)-1,2-dihydro-1,2,4-triazin-6(5H)-one] gave a melting point of 212 to 214 °C. In the series on MDA-MB-231, this compound displayed an IC50 of 33.5 ± 2.47 µM.

In general, IC50 refers to the point on the concentration scale where inhibition reaches its midpoint. A high value points to weaker potency in that assay. For orientation: melting point means the temperature, or range, at which the solid turns liquid.
